Assay results as given in patent publication US9360471B2, “Anti-aging agents and methods to identify them” (priority 2009, dated 2016).
“And” between values parts separate entries of the source, which are not always exact repeats. Identical values can stand only once.

Legend:
[1] = tested on: cdc13-1 cells; assay: cdc13-1 cell survival after cdc13-1p inactivation, colony formation assay; type: cell-based, budding yeast; details: for cell death triggered by inactivation of cdc13-1p (colony formation assay): 37° C. about 30 hrs, 6.7 μM PEITC, 5 mM silibinin, 1.25 mM selenite, 2.5 mM genistein, 250 μg/mL GSE, 50 μg/mL EGCG, 3 mg/mL bilberry extract
Method: To induce telomere dysfunction, fresh overnight cultures of cdc13-1 were diluted into YEPD medium with the indicated concentrations of glucose or 2-deoxyglucose and incubated at 37° C. for 24 hrs. For colony formation assay, treated cells were then serially diluted 10-fold in H2O and 5 μL was spotted onto regular YEPD plates. The plates were incubated at 24° C. for survived cells to form colonies. The starting number of live-cells was also counted by this colony formation assay. (B) Nitrogen restriction inhibits cell death induced by cdc13-1p inactivation as monitored by a colony formation assay. Cells were incubated in synthetic medium (SC) or SC—N (SC without amino acids and (NH4)2SO4 as nitrogen sources) at 37° C. for 24 hrs. The number of survived cells was counted using colony formation assay as described in 1A. (C-D) Inhibition of TOR by low doses of rapamycin (labeled as Rapa) (below growth inhibition concentration) can prevent cell death induced by cdc13-1p inactivation. Cells were incubated with the indicated concentrations of rapamycin in YEPD medium at 37° C. for 24 hrs. The number of survived cells was measured by the colony formation assay as in 1A. For growth curve, fresh overnight culture was diluted into YEPD medium and incubated at 24° C. in the presence of the indicated concentrations of rapamycin. Cell Density (OD595) was measured at the indicated time points and plotted against the time. (E) Deterioration of growth arrested cdc13-1 cells can be delayed by low dose of rapamycin (1 nM) and glucose restriction (0.5%) as measured by counting surviving cells using the colony formation assay. The data represent an average of three experiments.
(§1) (A) Cells were incubated at 37° C. to inactivated cdc13-1p, in YEPD medium, YEPD+1 nM rapamycin or YEPD with 0.5% glucose. At the indicated time points, an aliquot of cells was taken out and fixed with 50% ethanol at −20° C. for about 4 hrs, and then digested with 0.2 mg/mL RNase A in 50 mM Tris pH 7.6 at 37° C. overnight. The cells were next washed with 50 mM Tris pH 7.6 and treated with 40 μg/mL proteinase K at 55° C. for 2 hrs. After being washed again, cells were stained with 100 μg/mL propidium iodide for 20 min in the dark prior to FACS (Fluorescence activated cell sorter) analysis. […] Cells were incubated at 37° C. for 2 hours first, then diluted with a 37° C.-YEPD medium, YEPD with rapamycin to make a final concentration of 1 nM, or with a 37° C.-medium without glucose to make final 0.5% glucose. The cells were continuously incubated at 37° C. for 22 hrs. Surviving cells were counted using the colony formation assay.
The 6.7 μM PEITC, 5 mM silibinin, 1.25 mM selenite, 2.5 mM genistein, 250 μg/mL grape seed extract (GSE), 50 μg/mL EGCG, and 3 mg/mL bilberry extract (BE) were incubated with cells at 37° C. for about 30 hrs. The cell survival was measured by the colony formation assay at a permissive temperature 24° C.
In addition, limitation of nitrogen by SC—N medium (containing 0.67% yeast nitrogen base in absence of amino acids and (NH4)2SO4, 2% glucose, plus a mixture of 100 mg/L each of histidine, leucine, tryptophan and uracil for this yeast strain) prevented the cell death (FIG. 1B). […] After 60 hrs of incubation at 37° C., cell survival was at least 100-fold more than those without treatment.

[2] = tested on: human lymphoblastoid L40; assay: mitochondrial mass in human lymphoblastoid L40, MitoTracker Green FM and FACS; type: cell-based; details: for mitochondrial mass: 2-day treatment, 10 μM LY294002, 2 μM DATS, 1 μM BITC, 1 μM PITC, 2 μg/mL resveratrol, 0.03 μM lycopene, 6.7 μM PEITC, 5 mM silibinin, 1.25 mM selenite, 2.5 mM genistein, 250 μg/mL GSE, 50 μg/mL EGCG, 3 mg/mL bilberry extract, 1 μM AITC, 50 pM rapamycin, 250 μM AICAR
Excerpt: Mitochondrial mass was monitored by staining the 60% Ethanol-fixed cells with MitoTracker Green FM prior to FACS analysis.

[3] = tested on: senescent WI-38 cells (human primary fibroblast); assay: loss of senescent WI-38 cells, β-galactosidase (X-gal) staining; type: cell-based; details: 56 days in senescence; 50 pM rapamycin, 250 μM AICAR, 20 μg/mL EGCG, 1.6 μg/mL GSE, 20 μg/mL bilberry extract, 1 μM AITC, 12.5 μM 2-deoxyglucose; 3-day-on/7-day-off (AICAR 2-day-on/8-day-off)
Method: AICAR and reduced glucose treatment were incubated with cells in a 2-day-on/8-day-off cycle, while the rest of agents were in a 3-day-on/7-day-off cycle. The treatment started at passage 29. The medium was refreshed every 3 days. After 56-days from passage 31 (senescence), the cells were briefly fixed in 2% formaldehyde/0.2% glutaraldehyde and stained with 1 mg/mL 5-bromo-4-chloro-3-indolyl β-D-galactoside (X-gal) (in buffer containing 40 mM citric acid/sodium phosphate, pH 6.0, 5 mM potassium ferrocyanide, 5 mM potassium ferricyanide, 150 mM NaCl, and 2 mM MgCl2) at 37° C. for 18 hrs for the senescence marker, cellular β-galactosidase activity (blue in color picture and dark grey in black/white picture). Surviving senescent cells were viewed under a microscope.
This invention discloses that CR or rapamycin also prolongs senescence and prevents cell death induced by telomere dysfunction in human cells. Primary human embryonic lung fibroblasts WI-38 were used. […] Cells at passage 29 were treated with 50 pM rapamycin. The treatment was on a 10-day cycle of 3-day with and 7-day without rapamycin (also termed as 3-day-on/7-day-off cycle). […] Due to increased cytosol β-galactosidase activity, senescent cells are stained a blue color (shown as dark grey in black/white picture). […] Rapamycin didn't transform cells since the senescence marker was still present and cell growth was not observed.

[4] = tested on: NIH3T3 cells; assay: mitochondrial mass in NIH3T3 cells treated with TPA; type: cell-based, mouse; details: 10 μM TPA, two days
Method: NIH3T3 cells were incubated in DMEM medium (DMEM with 10% FCS, 100 units/mL penicillin, 100 μg/mL streptomycin and 2 mM glutamine) in the presence of control DMSO, 10 μM TPA, 1 nM rapamycin, 10 μM TPA+1 nM rapamycin, 40 μM AICAR, or 10 μM TPA+40 μM AICAR at 37° C. in a humidified atmosphere consisting of 95% air and 5% CO2 for two days. Cells were then harvested by trypsin and fixed by 60% ethanol. The cells were stained with MitoTracker Greeen FM in darkness for 30 min prior to FACS analysis. The data represents the average of a triplica-experiment.

[5] = tested on: marine models; details: marine models (Calvert 2008); cited from earlier work
[6] = tested on: cdc13-1 cells; assay: DNA content / cell cycle FACS analysis after cdc13-1p inactivation; type: cell-based, budding yeast; details: rapamycin 1 nM in YEPD, 37° C. for 2 hrs
Method: as §1

[7] = tested on: WI-38 cells; assay: growth and population doubling of WI-38 cells; type: cell-based, human; details: 25 pM rapamycin; without rapamycin 5.18 or 5.12
Method: (A) WI-38 cells were treated with the indicated concentrations of rapamycin as in FIG. 7. The treatment started at passage 29. Cells entered senescence at passage 31. After 65-days in senescence, surviving cells were measured by MTT (3-(4,5-dimethylthiazol-2-yl)-2,5-diphenyltetrazolium bromide, a tetrazole) staining. The purple color of MTT generated by mitochondrial reductase was read in 570 nm by a microplate reader. The data is a representative of three independent duplica-experiments. (B) The effect of rapamycin on growth of WI-38 cells. Cells were cultured as in FIG. 7. Arrows indicate the time point when rapamycin was added. 25 pM rapamycin has little effect on growth rate, but increases the population doubling (PD) from 5.18 to 6.82. Population doublings were calculated using the following formula: PD=log(Nf/N0)/log 2, where Nf is the final cell number and N0 is the number of initially seeded cells. Data is a representative of two independent duplica-experiments. (C) The low doses of rapamycin increase protein levels of p53, p21 and pRB. WI-38 cells on the 20th day after the last split (senescence) were treated with rapamycin for 18 hrs. Cell lysates were then analyzed by Western blotting using antibodies specifically against p53, p21 or pRB.

O=CC[C@@H](O)[C@H](O)[C@H](O)CO [2-deoxyglucose, reference compound]
cell death induced by inactivation of cdc13-1p (colony formation assay) ([1]; 200 μM added to YEPD with 2% glucose, 37° C. 22 hrs): prevented cell death effectively
mitochondria mass ([2]; 12.5 μM 2-deoxyglucose): increased mitochondria mass
loss of the senescent WI-38 cells [3]: prevented

C=CCN=C=S [AITC, allyl isothiocyanate]
mitochondrial mass [2]: increased
loss of the senescent WI-38 cells [3]: prevented

O=C(O[C@@H]1Cc2c(O)cc(O)cc2O[C@@H]1c1cc(O)c(O)c(O)c1)c1cc(O)c(O)c(O)c1 [EGCG, Epigallocatechin gallate]
cell death triggered by inactivation of cdc13-1p (colony formation assay) [1]: inhibited cell death
mitochondrial mass [2]: increased
loss of the senescent WI-38 cells [3]: prevented

S=C=NCCc1ccccc1 [PEITC, phenethyl isothiocyanate]
cell death triggered by inactivation of cdc13-1p (colony formation assay) [1]: inhibited cell death
mitochondrial mass [2]: increased

CCCCCCCCCCCCCC(=O)O[C@@H]1[C@@H](C)[C@@]2(O)[C@@H](C=C(CO)C[C@]3(O)C(=O)C(C)=C[C@@H]23)[C@@H]2C(C)(C)[C@]12OC(C)=O [TPA, 12-O-tetradecanoylphorbol 13-acetate]
mitochondrial mass in NIH 3T3 cells [4]: dramatically decreased the mitochondrial mass

S=C=NCc1ccccc1 [benzyl isothiocyanate]
mitochondrial mass [2]: increased

C=CCSSSCC=C [diallyl trisulfide]
mitochondrial mass [2]: increased

O=c1c(-c2ccc(O)cc2)coc2cc(O)cc(O)c12 [genistein]
cell death triggered by inactivation of cdc13-1p (colony formation assay) [1]: inhibited cell death
mitochondrial mass [2]: increased

CC(C)=CCC/C(C)=C/C=C/C(C)=C/C=C/C(C)=C/C=C/C=C(C)/C=C/C=C(C)/C=C/C=C(\C)CCC=C(C)C [lycopene]
mitochondrial mass [2]: increased

CN(C)C(=N)N=C(N)N [metformin]
myocardial infarction [5]: can reduce myocardial infarction

S=C=Nc1ccccc1 [phenyl isothiocyanate]
mitochondrial mass [2]: increased

CO[C@H]1C[C@@H]2CC[C@@H](C)[C@@](O)(O2)C(=O)C(=O)N2CCCC[C@H]2C(=O)O[C@H]([C@H](C)C[C@@H]2CC[C@@H](O)[C@H](OC)C2)CC(=O)[C@H](C)/C=C(\C)[C@@H](O)[C@@H](OC)C(=O)[C@H](C)C[C@H](C)/C=C/C=C/C=C/1C [rapamycin]
cells entered the G2/M phase of cell cycle [6]: more than 95%
cell survival compared with those without treatment ([1]; low dose of rapamycin (1 nM), after 60 hrs of incubation at 37° C.): at least 100 fold
population doubling (PD), replication potential [7]: 6.8 and 6.82

Oc1ccc(C=Cc2cc(O)cc(O)c2)cc1 [resveratrol]
mitochondrial mass [2]: increased

O=[Se]([O-])[O-].[Na+].[Na+] [selenite, selenite (Na2SeO3)]
cell death triggered by inactivation of cdc13-1p (colony formation assay) [1]: inhibited cell death
mitochondrial mass [2]: increased
